In US7678913B2, “Ureas as factor Xa inhibitors” (Portola Pharmaceuticals, Inc., priority 2004, dated 2010):
pIC50: −log10 of the molar value.

Each compound was assayed against T1, human plasma protein factor Xa (Homo sapiens, UniProt P00742) (assay: Factor Xa IC50 determination (cleavage of chromogenic substrate S-2765)). Details: fXa 1 nM, S-2765 100 μM, Tris buffered saline pH 7.4, room temperature.
T1 construct: measure proteolytic activity of the enzyme (factor Xa); purchased Haematologic Technologies (Essex Junction, Vt.); host or cells: human plasma
T1 sequence (P00742 235-488 limits assumed): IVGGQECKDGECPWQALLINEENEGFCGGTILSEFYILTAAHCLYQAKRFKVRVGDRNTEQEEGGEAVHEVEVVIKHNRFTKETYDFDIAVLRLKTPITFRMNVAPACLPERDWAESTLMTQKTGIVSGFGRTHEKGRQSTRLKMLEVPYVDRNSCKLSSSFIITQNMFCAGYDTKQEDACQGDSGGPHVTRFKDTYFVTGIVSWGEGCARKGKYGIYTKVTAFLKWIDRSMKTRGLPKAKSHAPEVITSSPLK
T1 sequence (P00742 41-179 partner limits assumed): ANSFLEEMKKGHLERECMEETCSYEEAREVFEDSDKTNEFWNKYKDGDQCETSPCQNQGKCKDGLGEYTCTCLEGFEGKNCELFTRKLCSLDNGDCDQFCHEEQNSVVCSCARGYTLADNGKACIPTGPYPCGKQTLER
Assay type: biochemical
In short: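 Human plasma factor Xa (1 nM) preincubated 5 min at room temperature with inhibitor (0.01 nM–10 μM final) in Tris-buffered saline pH 7.4 with CaCl2, BSA and 5% DMSO. S-2765 added at 100 μM; pNA release at 405 nm over 2 min; initial velocities fitted to four-parameter equation for IC50, duplicates.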
In the case of `COc1ccccc1C(NC(=O)Nc1ccc(Cl)cc1)C(=O)Nc1ccc(C(=N)N2CCCC2)cc1` (stereo not drawn) [Example 113], the pIC50 was no less than 7.00. For `O=C(Nc1ccc(Cl)cc1)NC(C(=O)NCC1CCN(c2ccncc2)CC1)c1ccccc1Cl` (stereo not drawn) [Example 105, N-[1-(pyridin-4-yl)piperidin-4-yl]methyl-2-(2-chlorophenyl)-2-(4-chlorophenylaminocarbonylamino)-acetamide], the pIC50 was no less than 7.00. Compound `CN1CCN=C1c1ccc(NC(=O)C(Cc2c[nH]c3ccccc23)NC(=O)Nc2ccc(Cl)cc2)cc1` (stereo not drawn) [Example 6, N-[4-(1-methyl-4,5-dihydro-1H-imidazol-2-yl)phenyl]-2-indol-3-ylmethyl-2-(4-chlorophenylaminocarbonylamino)-acetamide] has a pIC50 of no less than 7.00. With `N=C(c1ccc(NC(=O)C(NC(=O)Nc2ccc(Cl)cc2)c2ccccc2Cl)cc1)N1CCCC1` (stereo not drawn) [Example 101] the pIC50 was no less than 7.00. Compound `CN1CCN=C1c1ccc(NC(=O)C2(NC(=O)Nc3ccc(Cl)cc3)CC2)cc1` [Example 15, N-[4-(1-methyl-4,5-dihydro-1H-imidazol-2-yl)phenyl]-1-(4-chlorophenylaminocarbonylamino)-1-cyclopropanecarboxamide] has a pIC50 of 6.30 to 7.00. For `N=C(c1ccc(NC(=O)C(NC(=O)Nc2ccc(Cl)cc2)c2ccccc2F)cc1)N1CCCC1` (stereo not drawn) [Example 41], the pIC50 was no less than 7.00. Work on `N=C(c1ccc(NC(=O)C(NC(=O)Nc2ccc(Cl)cc2)c2ccccc2)c(F)c1)N1CCC1` (stereo not drawn) [Example 39] yielded a pIC50 of no less than 7.00. `CN1CCN=C1c1ccc(NC(=O)C(NC(=O)Nc2ccc(Cl)cc2)c2ccc3c(c2)OCO3)cc1` (stereo not drawn) [Example 76, N-[4-(1-methyl-4,5-dihydro-1H-imidazol-2-yl)phenyl]-2-(benzo-1,3-dioxl-5-yl)-2-(4-chlorophenylaminocarbonylamino)-acetamide] showed a pIC50 of no less than 7.00. `CN1CCN=C1c1ccc(NC(=O)[C@@H](CC(=O)OCc2ccccc2)NC(=O)Nc2ccc(Cl)cc2)cc1` [Example 61, (2R) N-[4-(1-methyl-4,5-dihydro-1H-imidazol-2-yl)phenyl]-2-benzyloxycarbonylmethyl-2-(4-chlorophenylaminocarbonylamino)-acetamide] was tested, and the pIC50 was 6.30 to 7.00. Work on `N=C(c1ccc(NC(=O)C(NC(=O)Nc2ccc(Br)cc2)c2ccccc2F)cc1)N1CCCC1` (stereo not drawn) [Example 44] yielded a pIC50 of no less than 7.00. `CN1CCN=C1c1ccc(NC(=O)C(NC(=O)Nc2ccc(Cl)cc2)c2ccccc2)cc1` (stereo not drawn) [Example 16, N-[4-(1-methyl-4,5-dihydro-1H-imidazol-2-yl)phenyl]-2-phenyl-2-(4-chlorophenylaminocarbonylamino)-acetamide] gave a pIC50 of no less than 7.00. `COc1ccccc1C(NC(=O)Nc1ccc(Cl)cc1)C(=O)Nc1ccc(C2=NCCN2C)cc1` (stereo not drawn) [Example 106, N-[4-(1-methyl-4,5-dihydro-1H-imidazol-2-yl)phenyl]-2-(2-methoxyphenyl)-2-(4-chlorophenylaminocarbonylamino)-acetamide] was tested, and the pIC50 was no less than 7.00. Work on `O=C(Nc1ccc(Cl)cc1)N[C@@H](C(=O)Nc1ccc(-n2ccccc2=O)cc1F)c1ccccc1` [Example 140, (2R) N-[4-(2-pyridon-1-yl)-2-fluorophenyl]-2-phenyl-2-(4-chlorophenylaminocarbonylamino)-acetamide] yielded a pIC50 of no less than 7.00. For `CN1CCC(N2CCN(C(=O)C(NC(=O)Nc3ccc(Cl)cc3)c3ccccc3Cl)CC2)CC1` (stereo not drawn) [Example 104, N-[4-(1-methylpiperidin-4-yl)piperazin-1-yl]-2-(2-chlorophenyl)-2-(4-chlorophenylaminocarbonylamino)-acetamide], the pIC50 was no less than 7.00. Work on `N=C(c1ccc(NC(=O)C(NC(=O)Nc2ccc(Cl)cc2)c2ccccc2F)c(F)c1)N1CCCC1` (stereo not drawn) [Example 47] yielded a pIC50 of no less than 7.00. In the case of `O=C(Nc1ccc(Cl)cc1)NC(C(=O)N1CCC(N2CCCCC2=O)CC1)c1ccccc1F` (stereo not drawn) [Example 149, 4-(2-piperidinon-1-yl)piperidin-1-yl-2-(2-fluorophenyl)-2-(4-chlorophenylaminocarbonylamino)-acetamide], the pIC50 was no less than 7.00. Compound `C=CCN(C)C(=N)c1ccc(NC(=O)C(NC(=O)Nc2ccc(Cl)cc2)c2ccccc2)cc1` (stereo not drawn) [Example 26, N-[4-(N-methyl-N-allylaminoimino)phenyl]-2-phenyl-2-(4-chlorophenylaminocarbonylamino)-acetamide] has a pIC50 of no less than 7.00. `CN1CCN=C1c1ccc(NC(=O)C(NC(=O)Nc2ccc(Br)cc2)c2ccccc2F)cc1` (stereo not drawn) [Example 40, N-[4-(1-methyl-4,5-dihydro-1H-imidazol-2-yl)phenyl]-2-(2-fluorophenyl)-2-(4-bromophenylaminocarbonylamino)-acetamide] showed a pIC50 of no less than 7.00.
